Experimental data reported in ChEMBL document CHEMBL1201862, “PubChem BioAssay data set” (2004).
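In this assay, cells in 96-well plates receive the compound at five concentrations for 48 hours. Endpoints are linearly interpolated between the surrounding concentrations. GI50: concentration for 50% inhibition of growth.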 The source made the active and inactive calls. Cut-off read from the data, not from the text of the source: active = GI50 up to about 1.1 µM and inactive = higher.

Assays:
Experiment in all cases: DTP human tumour cell line panel, 48 h
RXF 393 = system: RXF 393
Hs-578T = system: Hs-578T
KM12 = system: KM12
M14 = system: M14
OVCAR-3 = system: OVCAR-3
DU-145 = system: DU-145
SF-539 = system: SF-539
NCI-H522 = system: NCI-H522
MOLT-4 = system: MOLT-4
NCI/ADR-RES = system: NCI/ADR-RES
UACC-62 = system: UACC-62
SK-OV-3 = system: SK-OV-3
MCF7 = system: MCF7
BT-549 = system: BT-549
NCI-H226 = system: NCI-H226
RPMI-8226 = system: RPMI-8226
NCI-H460 = system: NCI-H460
HCT-15 = system: HCT-15
SK-MEL-5 = system: SK-MEL-5
SK-MEL-28 = system: SK-MEL-28
NCI-H23 = system: NCI-H23
OVCAR-5 = system: OVCAR-5
A498 = system: A498
IGROV-1 = system: IGROV-1
SF-268 = system: SF-268
ACHN = system: ACHN
OVCAR-8 = system: OVCAR-8
SK-MEL-2 = system: SK-MEL-2
MDA-MB-231 = system: MDA-MB-231
SN12C = system: SN12C
SW-620 = system: SW-620
MDA-N = system: MDA-N
HOP-62 = system: HOP-62
K562 = system: K562
CAKI-1 = system: CAKI-1
SNB-19 = system: SNB-19
HL-60 = system: HL-60
EKVX = system: EKVX
HCT-116 = system: HCT-116
TK-10 = system: TK-10
PC-3 = system: PC-3
UO-31 = system: UO-31
LOX IMVI = system: LOX IMVI
COLO 205 = system: COLO 205
UACC-257 = system: UACC-257
U-251 = system: U-251
HCC 2998 = system: HCC 2998
786-0 = system: 786-0
OVCAR-4 = system: OVCAR-4
SF-295 = system: SF-295
T47D = system: T47D
HOP-92 = system: HOP-92
SNB-75 = system: SNB-75
MDA-MB-435 = system: MDA-MB-435
CCRF-CEM = system: CCRF-CEM
A549 = system: A549
Malme-3M = system: Malme-3M
SR = system: SR
HT-29 = system: HT-29

CN(C)CCCNc1nnc(NCCCN(C)C)c2c(=O)c3sccc3[nH]c12
GI50 (RXF 393): 15 µM (inactive)
GI50 (Hs-578T): 23.2 µM (inactive)
GI50 (KM12): 5.75 µM (inactive)
GI50 (M14): 11.7 µM (inactive)
GI50 (OVCAR-3): 14.2 µM (inactive)
GI50 (DU-145): 8.75 µM (inactive)
GI50 (SF-539): 5.51 µM (inactive)
GI50 (NCI-H522): 4.02 µM (inactive)
GI50 (MOLT-4): 3.24 µM (inactive)
GI50 (NCI/ADR-RES): 8.15 µM (inactive)
GI50 (UACC-62): 14.2 µM (inactive)
GI50 (SK-OV-3): 12.9 µM (inactive)
GI50 (MCF7): 5.64 µM (inactive)
GI50 (BT-549): 32.1 µM (inactive)
GI50 (NCI-H226): 8.95 µM (inactive)
GI50 (RPMI-8226): 9.02 µM (inactive)
GI50 (NCI-H460): 3.51 µM (inactive)
GI50 (HCT-15): 6.62 µM
GI50 (SK-MEL-5): 1.4 µM (inactive)
GI50 (SK-MEL-28): 28.8 µM (inactive)
GI50 (NCI-H23): 10.8 µM (inactive)
GI50 (OVCAR-5): 16.6 µM (inactive)
GI50 (A498): 41.4 µM (inactive)
GI50 (IGROV-1): 5.69 µM (inactive)
GI50 (SF-268): 5.53 µM (inactive)
GI50 (ACHN): 5.85 µM (inactive)
GI50 (OVCAR-8): 3 µM (inactive)
GI50 (SK-MEL-2): 18.4 µM (inactive)
GI50 (MDA-MB-231): 6 µM (inactive)
GI50 (SN12C): 3.19 µM (inactive)
GI50 (SW-620): 4.56 µM (inactive)
GI50 (MDA-N): 3.4 µM (inactive)
GI50 (HOP-62): 5.77 µM (inactive)
GI50 (K562): 3.48 µM (inactive)
GI50 (CAKI-1): 5.05 µM (inactive)
GI50 (SNB-19): 31.7 µM (inactive)
GI50 (HL-60): 3.59 µM (inactive)
GI50 (EKVX): 8.91 µM (inactive)
GI50 (HCT-116): 9.46 µM (inactive)
GI50 (TK-10): 9.86 µM (inactive)
GI50 (PC-3): 6.01 µM (inactive)
GI50 (UO-31): 2.75 µM (inactive)
GI50 (LOX IMVI): 14 µM (inactive)
GI50 (COLO 205): 2.82 µM (inactive)
GI50 (UACC-257): 22.4 µM (inactive)
GI50 (U-251): 22.2 µM (inactive)
GI50 (HCC 2998): 6.68 µM (inactive)
GI50 (786-0): 4.59 µM (inactive)
GI50 (OVCAR-4): 5.42 µM (inactive)
GI50 (SF-295): 13.7 µM (inactive)
GI50 (T47D): 19.4 µM (inactive)
GI50 (HOP-92): 35.8 µM (inactive)
GI50 (SNB-75): 6.73 µM (inactive)
GI50 (MDA-MB-435): 8.15 µM (inactive)
GI50 (CCRF-CEM): 9.48 µM (inactive)
GI50 (A549): 5.41 µM (inactive)
GI50 (Malme-3M): 15.5 µM (inactive)

Cc1nn(-c2ccccc2)c2nc3ccc(Cl)cc3c(-c3ccccc3)c12
GI50 (Hs-578T): > 100 µM (inactive)
GI50 (KM12): > 100 µM (inactive)
GI50 (M14): > 100 µM (inactive)
GI50 (OVCAR-3): > 100 µM (inactive)
GI50 (DU-145): > 100 µM (inactive)
GI50 (NCI-H522): > 100 µM (inactive)
GI50 (SR): > 100 µM (inactive)
GI50 (MOLT-4): > 100 µM (inactive)
GI50 (NCI/ADR-RES): > 100 µM (inactive)
GI50 (UACC-62): > 100 µM (inactive)
GI50 (SK-OV-3): > 100 µM (inactive)
GI50 (MCF7): > 100 µM (inactive)
GI50 (BT-549): > 100 µM (inactive)
GI50 (NCI-H226): > 100 µM (inactive)
GI50 (RPMI-8226): > 100 µM (inactive)
GI50 (NCI-H460): > 100 µM (inactive)
GI50 (HCT-15): > 100 µM
GI50 (SK-MEL-5): > 100 µM (inactive)
GI50 (SK-MEL-28): > 100 µM (inactive)
GI50 (NCI-H23): > 100 µM (inactive)
GI50 (HT-29): > 100 µM (inactive)
GI50 (OVCAR-5): > 100 µM (inactive)
GI50 (IGROV-1): > 100 µM (inactive)
GI50 (SF-268): > 100 µM (inactive)
GI50 (ACHN): > 100 µM (inactive)
GI50 (OVCAR-8): > 100 µM (inactive)
GI50 (SK-MEL-2): > 100 µM (inactive)
GI50 (MDA-MB-231): > 100 µM (inactive)
GI50 (SN12C): > 100 µM (inactive)
GI50 (SW-620): > 100 µM (inactive)
GI50 (MDA-N): > 100 µM (inactive)
GI50 (HOP-62): > 100 µM (inactive)
GI50 (SNB-19): > 100 µM (inactive)
GI50 (EKVX): > 100 µM (inactive)
GI50 (HCT-116): > 100 µM (inactive)
GI50 (TK-10): > 100 µM (inactive)
GI50 (PC-3): > 100 µM (inactive)
GI50 (UO-31): > 100 µM (inactive)
GI50 (LOX IMVI): > 100 µM (inactive)
GI50 (COLO 205): > 100 µM (inactive)
GI50 (U-251): > 100 µM (inactive)
GI50 (HCC 2998): > 100 µM (inactive)
GI50 (786-0): > 100 µM (inactive)
GI50 (OVCAR-4): > 100 µM (inactive)
GI50 (SF-295): > 100 µM (inactive)
GI50 (T47D): > 100 µM (inactive)
GI50 (HOP-92): > 100 µM (inactive)
GI50 (SNB-75): > 100 µM (inactive)
GI50 (MDA-MB-435): > 100 µM (inactive)
GI50 (CCRF-CEM): > 100 µM (inactive)
GI50 (A549): > 100 µM (inactive)
GI50 (Malme-3M): > 100 µM (inactive)
